Experimental data from publication PMC7211193, “Evaluation of absorption, distribution, metabolism, and excretion of [^14C]-rucaparib, a poly(ADP-ribose) polymerase inhibitor, in patients with advanced solid tumors” (Investigational New Drugs, 2019).
Where “and” joins values, the source holds several entries; their conditions need not be identical. Identical values can stand only once.

Experiments:
Assay type in all cases: in vivo, human
[1] = Metabolite profiling in plasma (LC-MS-TopCount); settings: for Amount detected in plasma: Hamilton AUC0-24h pooled plasma
Protocol: Plasma samples from six patients were pooled using two methods: (1) A Hamilton pool plasma (0–24 h) for metabolite profile determination was prepared by combining plasma aliquots of a volume proportional to the time interval used for calculating the AUC (AUC0-24h pool) for each patient and (2) four time-point pooling samples were obtained by equal volume pool at 1, 4, 8, and 24 h across six patients. In addition, plasma samples at 1, 8, and 24 h were selected from three patients (Patients 03, 08, and 09) for metabolite profiles analysis to check the individual differences between patients. Samples collected after 24 h post dose were not included in the pooling due to the low radioactivity at later time points. All plasma samples (pooled and from individuals) were extracted at least two times with acetonitrile. All supernatants were evaporated to dryness, and the dried residues were reconstituted in 20% acetonitrile in water containing 0.1% TFA. The sample recovery was obtained by comparing the radioactivity concentrations before and after extraction, and the mean recovery was about 70%.
Aliquots of the supernatants were injected into the HPLC, and the HPLC elutes were collected as fractions at intervals of 30 sec per well into LumaPlate-96 DeepWell microplates (PerkinElmer). Due to the low radioactivity in each plasma sample, metabolite profiles were obtained by TopCount (PerkinElmer) analysis of HPLC elutes. The fractions were dried at room temperature, and then analyzed by a TopCount NXT radiometric microplate reader (PerkinElmer) to obtain metabolite profiles. The supernatants of extracts were also analyzed using an LC-MS method to identify metabolites.
(§1) Metabolite profiling and identification were performed on an LC system (Agilent) coupled to an LTQ Orbitrap mass spectrometer (Thermo Electron, Waltham, MA, USA) in combination with offline TopCount (LC-MS-TopCount) or online Radiomatic 625TR (LC-MS-Radiomatic; PerkinElmer). Proposed structures of the metabolites were based on accurate mass (<5 ppm) and comparison of mass spectral data of parent compound rucaparib and metabolite standard M324. The Radiomatic 625TR flow detector, equipped with a 200 μL flow cell, was operated using scintillation cocktail (Ultima-Flo M) delivered at a flow rate of 1 mL/min. Chromatography was done using a Phenomenex (Torrance, CA, USA) Luna Phenyl-Hexyl column (250 × 2 mm, 5 μm, 100 Å) at ambient temperature during the sample analysis. The mobile phase was (A) 0.05% TFA in water and (B) 0.05% TFA in acetonitrile, with a 0.2 mL/min flow rate. The gradient was as follows: 5% B over 2.1 min, to 20% B in 1.0 min, to 35% B in 16.9 min, isocratic at 35% B for 5 min, to 95% B over 5 min, and reduced to 5% B over 1 min, with total run time 45 min.
(§2) The abundance of unchanged rucaparib and metabolites identified in plasma, urine, and feces was determined as a percentage of the TRA in the analyzed samples. Percentage of the administered dose of rucaparib and metabolites was calculated in urine and feces (formula A). The concentration of rucaparib and its metabolites in plasma (ng Eq h/mL) was calculated based on the specific activity, TRA, and percentage of peaks (formula B). The AUC0-24h value of rucaparib and its major metabolite M324 in plasma was calculated using both Hamilton method (formula C) and linear trapezoidal method (formula D). • (A) %Doseofmetabolite=TRAinurineorfeces(dpm)÷TRAinadministereddose(dpm)×%metabolitesinmatrix • (B) Metaboliteconcentrationsinplasma(ngEq/mL)=TRAinplasma(dpm/mL)specificactivity(ngEq/dpm)×%metabolitesinthematrix • (C) Hamiltonmethod:AUC0−24h(ngEqh/mL)=concentrationinHamilton(AUC0−24h)pooledplasma(ngEq/mL)×24(h) • (D) Lineartrapezoidalmethod:AUC0−24h(ngEqh/mL)=C1h/2×1h+C1h+C4h/2×(4h−1h)+C4h+C8h/2×(8h−4h)+C8h+C24h/2×(24h−8h)

[2] = Metabolite identification by LC-MS/MS in plasma, urine and feces; settings: F feces, P plasma, U urine
Protocol: as §1
The LTQ Orbitrap mass spectrometer was equipped with an electrospray ionization interface and operated in positive ionization mode for metabolite profiling and identification. Mass spectra were acquired in full scan (MS) (m/z 150–1500) and data-dependent scan modes. Mass spectrometer parameter settings were: spray voltage, +5.0 kV; capillary temperature, 350 °C; sheath gas, 80 (arbitrary unit); auxiliary gas, 30 (arbitrary unit); activation Q, 0.25; activation time, 30 msec; resolution, 7500; and collision energy, 35 eV.
The structures of the metabolites were identified by LC-MS/MS based on comparisons of mass spectral fragmentation patterns with those produced by the parent compound. Further confirmation of the identities of the metabolites was based on the elemental composition determined from accurate mass analyses using an Orbitrap high-resolution mass spectrometer.
The structures of the major metabolites found in plasma, urine, and feces were also confirmed by comparisons with the synthetic reference standard M324.

[3] = Metabolite profiling in pooled feces (LC-MS-Radiomatic); settings: for Amount detected in feces: pooled fecal homogenates, mainly observed by MS only
Protocol: For each patient, homogenized feces samples from different collection intervals were pooled in proportion to their sample weight in order to obtain a pooled sample covering 90% of the TRA recovered in feces. Aliquots of the pooled fecal samples were extracted at least twice with acetonitrile. The obtained supernatant was evaporated. The dried residues were reconstituted in 40% DMSO in water to obtain maximum recovery. An aliquot of the supernatant was analyzed for TRA to determine extraction efficiency, and the mean recovery was ≈75%. Aliquots of the supernatants were injected into the HPLC coupled to UV and radioactive detectors to obtain metabolite profiles. The sample supernatants were also analyzed using LC-MS to identify metabolites.
as §1, §2

[4] = Metabolite profiling in pooled urine (LC-MS-Radiomatic)
Protocol: For each patient, urine samples from different collection intervals were pooled in proportion to their sample weight in order to obtain a pooled sample covering 90% of the TRA in urine. Pooled urine samples were lyophilized and then extracted at least twice with acetonitrile. The obtained supernatant was evaporated to dryness, and the dried residues were reconstituted in 20% acetonitrile in water containing 0.1% TFA. An aliquot of the supernatant was analyzed for TRA to determine extraction efficiency, and the mean recovery was ≈70%. Aliquots of the supernatants were injected into the HPLC coupled to UV and radioactive detectors to obtain metabolite profiles. The samples were also analyzed using LC-MS for metabolite identification.
as §1, §2

[5] = 0-24 h pooled plasma, N = 6, mean ± SD

Question: With NCc1ccc(-c2[nH]c3cc(F)cc4c3c2CCNC4=O)cc1 [M309] as the molecule, how does the “Amount detected in plasma” value [1] read?
Answer: Its value is “small or trace amounts”.

Question: What about the “Matrix in which identified” value [2] of the same molecule?
Answer: Its value is “P, U, F”.

Question: What about the “Amount detected in feces” value [3] of the same molecule?
Answer: Its value is “trace amounts”.

Question: What about the “Amount observed in urine” value ([4]; pooled urine) of the same molecule?
Answer: Its value is “small to trace amounts”.

Question: Which results are given for NC(=O)c1ccc(-c2[nH]c3cc(F)cc4c3c2CCNC4=O)cc1 [M323]?
Answer: Amount detected in plasma [1]: small or trace amounts; Matrix in which identified [2]: P, U, F; Amount detected in feces [3]: trace amounts; Amount observed in urine ([4]; pooled urine): small to trace amounts

Question: Which results are given for O=C(O)c1ccc(-c2[nH]c3cc(F)cc4c3c2CCNC4=O)cc1 [M324]?
Answer: % Peak (of plasma radioactivity), Hamilton (AUC0-24h) pooled plasma [1, 5]: 18.6 ± 10.8%; Concentration, Hamilton (AUC0-24h) pooled plasma [1, 5]: 94.0 ± 62.7 ng Eq/mL; M324 as percentage of unchanged rucaparib exposure in 24-h pooled plasma ([1]; Hamilton 0-24 h pooled plasma): 30.3%; % Radioactive peaks in individual plasma, Patient 03, 1 h ([1]; Patient 03, 1 h): 15.4%; % Radioactive peaks in individual plasma, Patient 03, 8 h ([1]; Patient 03, 8 h): 33.3%; % Radioactive peaks in individual plasma, Patient 03, 24 h ([1]; Patient 03, 24 h): 63.9%; % Radioactive peaks in individual plasma, Patient 08, 1 h ([1]; Patient 08, 1 h): 7.94%; % Radioactive peaks in individual plasma, Patient 08, 8 h ([1]; Patient 08, 8 h): 20%; % Radioactive peaks in individual plasma, Patient 08, 24 h ([1]; Patient 08, 24 h): 61.5%; % Radioactive peaks in individual plasma, Patient 09, 1 h ([1]; Patient 09, 1 h): 15.4%; % Radioactive peaks in individual plasma, Patient 09, 8 h ([1]; Patient 09, 8 h): 17.9%; % Radioactive peaks in individual plasma, Patient 09, 24 h ([1]; Patient 09, 24 h): 36.2%; % Radioactive peaks in individual plasma, Mean ± SD, 1 h ([1]; Patients 03, 08, 09, 1 h): 12.9 ± 4.31%; % Radioactive peaks in individual plasma, Mean ± SD, 8 h ([1]; Patients 03, 08, 09, 8 h): 23.7 ± 8.35%; % Radioactive peaks in individual plasma, Mean ± SD, 24 h ([1]; Patients 03, 08, 09, 24 h): 53.9 ± 15.3%; AUC0-24h, Hamilton (AUC0-24h) pooled plasma ([1]; concentration in 0-24-h pooled sample × 24 h): 2260 ng Eq h/mL; concentration at 1 h ([1]; human, plasma, oral, 600 mg, single pooled sample from all six patients, 1 h, read-out: Mean concentration, time point pooled plasma, 1 h): 31.1 ng/mL; concentration at 4 h ([1]; human, plasma, oral, 600 mg, single pooled sample from all six patients, 4 h, read-out: Mean concentration, time point pooled plasma, 4 h): 265 ng/mL; concentration at 8 h ([1]; human, plasma, oral, 600 mg, single pooled sample from all six patients, 8 h, read-out: Mean concentration, time point pooled plasma, 8 h): 105 ng/mL; concentration at 24 h ([1]; human, plasma, oral, 600 mg, single pooled sample from all six patients, 24 h, read-out: Mean concentration, time point pooled plasma, 24 h): 239 ng/mL; Mean AUC0-24h, time point pooled plasma ([1]; trapezoidal method from 1, 4, 8, 24 h pools): 3960 ng Eq h/mL; Matrix in which identified [2]: P, U, F; % of dose in pooled fecal homogenate, Patient 01 ([3]; Patient 01): 6.39 % dose; % of dose in pooled fecal homogenate, Patient 03 ([3]; Patient 03): 7.82 % dose; % of dose in pooled fecal homogenate, Patient 05 ([3]; Patient 05): 3.33 % dose; % of dose in pooled fecal homogenate, Patient 06 ([3]; Patient 06): 2.22 % dose; % of dose in pooled fecal homogenate, Patient 08 ([3]; Patient 08): 0.00 % dose; % of dose in pooled fecal homogenate, Patient 09 ([3]; Patient 09): 0.00 % dose; % Peak (of TRA) in feces ([3]; pooled fecal homogenate covering >90% of fecal excretion, N = 6, mean ± SD): 5.07 ± 4.95%; % Dose in feces ([3]; pooled fecal homogenate, % of administered dose, N = 6, mean ± SD): 3.3% and 3.29 ± 3.25%; % of dose in pooled urine, Patient 01 ([4]; Patient 01): 6.17 % dose; % of dose in pooled urine, Patient 03 ([4]; Patient 03): 7.24 % dose; % of dose in pooled urine, Patient 05 ([4]; Patient 05): 7.22 % dose; % of dose in pooled urine, Patient 06 ([4]; Patient 06): 8.54 % dose; % of dose in pooled urine, Patient 08 ([4]; Patient 08): 6 % dose; % of dose in pooled urine, Patient 09 ([4]; Patient 09): 10.3 % dose; % Peak (of TRA) in urine ([4]; pooled urine covering 90% of urine radioactivity, N = 6, mean ± SD): 50.0 ± 15.5%; % Dose in urine ([4]; pooled urine, % of administered dose, N = 6, mean ± SD): 7.58 ± 1.61%

Question: Which “Amount detected in plasma” value [1] does the source give for O=CNCc1ccc(-c2[nH]c3cc(F)cc4c3c2CCNC4=O)cc1 [M337b] here?
Answer: The value was “small or trace amounts”.

Question: What about the “Matrix in which identified” value [2] of the same molecule?
Answer: Its value is “P, U, F”.

Question: And the “Amount detected in feces” value [3]?
Answer: Its value is “trace amounts”.

Question: And the “Amount observed in urine” value ([4]; pooled urine)?
Answer: The value was “small to trace amounts”.
